In data set [1] the test system is TNF-α secreted by TPA-induced U937 cells. Nature of the data set: TNF-α immunoassay on media of TPA-treated U937 cells. The class given is cell-based. Particulars: cell culture media (FIG. 12). As for the experimental part:
One function of macrophages is to modulate the activity of other inflammatory cells through various cytokine molecules.
TNF-α levels in the cell culture media were determined by using the TNF-α Immunoassay from R&D Systems (Cat. #DTA50) according to the manufacturer's protocol.

The test system of a further data set is U937 cells. Nature of the data set: apoptosis induction of U937 cells, active caspase 3 indirect immunofluorescence. The class given is cell-based. Particulars: 1 μM, 24 hours. Here is the method: U937 cells (from ATCC Rockville, Md.) were grown in RPMI media supplemented with 5% FCS, glutamine, antibiotic/antimycotic and sodium pyruvate. Total RNA was isolated from two U937 cultures, one treated with 5 nM TPA for 48 hours and one grown in normal media as listed above, using the Rouche High Pure RNA Isolation Kit (cat #1 828 665) as per manufacturers protocol. cDNA was then synthesized from the total RNA using GibcoBRL SuperscriptII (Cat #18064-022) reverse transcriptase as per manufacturers protocol. The resulting cDNA was used as a template for RT-PCR reactions using primer sets specific for PDE2 (forward: […], reverse: […]) or PDE5 (forward: […], reverse: […]). mRNA for PDE2 and 5 were both present in the untreated U937 cells. Upon treatment with TPA, the relative amounts of PDE2 mRNA increased 5 fold. Therefore, U937 cells treated with TPA and driven to differentiate into an activated macrophage like state have elevated levels of PDE2 mRNA (see FIG. 1).
The presence of PDE2 and PDE5 protein within U937 cells was confirmed by indirect immunofluorescence (IIF). U937 cells were cultured as above. Two U937 cultures, one grown in the presence of 5 nM TPA for 48 hours and one grown in normal media were processed. All cultures were collected by centrifugation (Shandon Cytospin, 2 minutes @600 rpm) onto poly-L lysine-coated slides and immediately fixed in fresh 3% paraformaldehyde buffered in PBS for 10 minutes. Adherent cultures were grown on coverslips and fixed as above. Cells were permeablized in 0.2% Triton-100 for 2 minutes. Slides were blocked with blocking buffer (5% goat serum, 5% glycerol, 1% gelatin from cold water fish skin and 0.04% NaN3 in PBS) for 1 hour at room temperature.
Slides were then incubated for 1 hour at 37° C. in a humid chamber with antibodies specific for PDE2 (generated in a sheep against the peptide […]) or PDE5 (generated in sheep against the peptide […]). […]
The level of apoptosis in U937 cells was quantified by scoring 500 consecutive cells for the presence of active caspase 3. […]

In data set [2] the target is T1, cGMP binding sites of the GST-cGB-PDE5 fusion protein (Homo sapiens, UniProt O76074).
T1 construct: made in house; host or cells: E. coli BL21 (DE3)
Nature of the data set: cGMP binding assay with GST-cGB-PDE5 fusion protein. Particulars: 3H-cGMP 2 μM, 22° C., 1 hour. From the text: RT-PCR method is used to obtain the cGB domain of PDE5 with forward and reverse primers designed from bovine PDE5A cDNA sequence (McAllister-Lucas L. M. et al, J. Biol. Chem. 268, 22863-22873, 1993) and the selection among PDE 1-10 families. 5′-3′, Inc. kits for total RNA followed by oligo (dT) column purification of mRNA are used with HT-29 cells. […] It is then cloned into pGEX-5X-3 glutathione-S-ransferase (GST) fusion vector (Pharmacia Biotech )with tac promoter, and EcoRI and XhoI cut sites. The fusion vector is then transfected into E. Coli BL21 (DE3) bacteria (Invitrogen). The transfected BL21 bacteria is grown to log phase, and then IPTG is added as an inducer. The induction is carried at 20° C. for 24 hrs. The bacteria are harvested and lysed. The soluble cell lysate is incubated with GSH conjugated Sepharose 4B (GSH-Sepharose 4B). The GST-cGB-pDE5 fusion protein can bind to the GSH-Sepharose beads, and the other proteins are washed off from beads with excessive cold PBS.
Then, the mixture is transferred to Brandel MB-24 cell harvester with GF/B as the filter membrane followed by 2 washes with 10 mL of cold 5 mM potassium buffer(pH 6.8). The membranes are then cut out and transferred to scintillation vials followed by the addition of 1 mL of H2O and 6 mL of Ready Safe™ liquid scintillation cocktail to each vial. The vials are counted on a Beckman LS 6500 scintillation counter.
The quenching by filter membrane or other debris are also calibrated.

Data set [3] concerns dogs. Nature of the data set: 91-day oral study in dogs. Type of data set: in vivo, dog.
In a further data set the test system is rats. The data set is described as follows: acute toxicity study in rats. The settings on record: rat, in vivo.
Data set [4] concerns dogs. The data set is described as follows: acute / seven-dose toxicity in dogs. The settings on record: dog, in vivo.
Description: Therefore, these dogs were subsequently administered seven consecutive doses of 1000 mg/kg/day.
A further data set concerns the target PDE 5 (Homo sapiens, UniProt O76074). The data set is described as follows: competitive binding (with cGMP) to PDE5.
The subject of the next data set is PDE4. Nature of the data set: PDE inhibition, similar protocols. The class given is biochemical.
Where [5] appears, read: 91 days, highest dose group (300 mg/kg/day).

Counter-ions that a name gives are not always drawn.

Regarding `CC1=C(CC(=O)NCc2ccccc2)c2cc(F)ccc2/C1=C\c1ccncc1` [Example 38, (Z)-5-Fluoro-2-methyl-(4-pyridylidene)-3-(N-benzyl)indenylacetamide Hydrochloride], in data set [1], the “level of TNF-α secreted” value is “significantly reduced”. Also, in the data set on U937 cells, the “apoptosis by active caspase 3 image (FIG. 8)” value is “undergoing apoptosis as reflected by the presence of active caspase 3”. In addition, in data set [2], the “competition with cGMP in binding to the cGMP binding sites of GST-cGB-PDE5” value is given as “does not bind to the cGMP-binding site of PDE5”. The feces observation entry in the data set with dogs [3] (91 days, 150 and 300 mg/kg/day) is on record as “Orange discoloration of the feces”. Also, the “microscopic alterations (liver)” value in the data set with dogs [3] (91 days, highest dose group) is “no microscopic alterations”. Besides, in the data set on dogs [3] (setting [5]), the body weights entry is listed as “Slightly lowered body weights” and the liver weights result is given as “increased liver weights”. Also, in the data set on dogs [3] (oral, 91 days), the “route of elimination (suggested by feces colour)” value was “most of Compound 38 was being eliminated via the feces”. Besides, the toxicological effects overall result in the data set with dogs [3] (oral, 91 days, 50, 150 and 300 mg/kg/day) was “no toxicological effects”. Also, in the data set with rats (ip, 1000 mg/kg), the body weight gain result is reported as “reduced body weight gain” and the necropsy findings result is listed as “mesenteric adhesions seen in some animals”. Moreover, the body weight gains result in the data set on rats (po, 2000 mg/kg) is “slightly reduced”. Also, the signs of toxicity result in the data set on dogs [4] (1000 mg/kg) is “no signs of toxicity”. In the data set with dogs [4] (1000 mg/kg/day), the “signs of drug-related effects” value is on record as “At no time in either dosing phase were any obvious signs of drug-related effects observed”. Besides, the “competitive (with cGMP) binding to PDE 5” value at PDE 5 is recorded as “does competitively (with cGMP) bind to PDE 5”. Moreover, the IC50 with PDE4 was 6 µM.
